According to ChEMBL document CHEMBL1201862, “PubChem BioAssay data set” (2004):
The source made the active and inactive calls.

Key:
[1] = bead-based luminescence quenchers, dual-tagged ARNT – biochemical, AlphaScreen, cherry-pick, artefact control for ARNT-TACC3 interaction inhibitor project, dose response (AID 651705); assay type: functional;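 also: AlphaScreen bead proximity signal that flags compounds interfering with the detection technology; potency reflects signal decrease which marks the compound as an assay artifact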
[2] = inhibition of ARNT PAS-B/TACC3 complex formation – biochemical, AlphaScreen, cherry-picked samples, confirmation (AID 651703); assay type: functional, Homo sapiens;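 also: His-tagged ARNT PAS-B domain paired with GST-TACC3 E629A dimer coactivator fragment; potency of inhibitors that break up the complex and lower AlphaScreen signal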
[3] = target: T1, Small ubiquitin-related modifier 1 (Homo sapiens, UniProt P63165); assay: SUMO1 protein interaction blockers, potency – biochemical, fluorescence polarization, uHTS hits, dose response (AID 624382); assay type: functional; settings: read-out: IC50_Mean
T1 sequence (P63165 whole entry): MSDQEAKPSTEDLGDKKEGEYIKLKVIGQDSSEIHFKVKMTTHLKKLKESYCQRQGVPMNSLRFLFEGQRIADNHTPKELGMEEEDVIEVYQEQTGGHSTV

[4] = target: T2, Histone-lysine N-methyltransferase NSD2 (Homo sapiens, UniProt O96028); assay type: biochemical
T2 sequence (O96028 whole entry): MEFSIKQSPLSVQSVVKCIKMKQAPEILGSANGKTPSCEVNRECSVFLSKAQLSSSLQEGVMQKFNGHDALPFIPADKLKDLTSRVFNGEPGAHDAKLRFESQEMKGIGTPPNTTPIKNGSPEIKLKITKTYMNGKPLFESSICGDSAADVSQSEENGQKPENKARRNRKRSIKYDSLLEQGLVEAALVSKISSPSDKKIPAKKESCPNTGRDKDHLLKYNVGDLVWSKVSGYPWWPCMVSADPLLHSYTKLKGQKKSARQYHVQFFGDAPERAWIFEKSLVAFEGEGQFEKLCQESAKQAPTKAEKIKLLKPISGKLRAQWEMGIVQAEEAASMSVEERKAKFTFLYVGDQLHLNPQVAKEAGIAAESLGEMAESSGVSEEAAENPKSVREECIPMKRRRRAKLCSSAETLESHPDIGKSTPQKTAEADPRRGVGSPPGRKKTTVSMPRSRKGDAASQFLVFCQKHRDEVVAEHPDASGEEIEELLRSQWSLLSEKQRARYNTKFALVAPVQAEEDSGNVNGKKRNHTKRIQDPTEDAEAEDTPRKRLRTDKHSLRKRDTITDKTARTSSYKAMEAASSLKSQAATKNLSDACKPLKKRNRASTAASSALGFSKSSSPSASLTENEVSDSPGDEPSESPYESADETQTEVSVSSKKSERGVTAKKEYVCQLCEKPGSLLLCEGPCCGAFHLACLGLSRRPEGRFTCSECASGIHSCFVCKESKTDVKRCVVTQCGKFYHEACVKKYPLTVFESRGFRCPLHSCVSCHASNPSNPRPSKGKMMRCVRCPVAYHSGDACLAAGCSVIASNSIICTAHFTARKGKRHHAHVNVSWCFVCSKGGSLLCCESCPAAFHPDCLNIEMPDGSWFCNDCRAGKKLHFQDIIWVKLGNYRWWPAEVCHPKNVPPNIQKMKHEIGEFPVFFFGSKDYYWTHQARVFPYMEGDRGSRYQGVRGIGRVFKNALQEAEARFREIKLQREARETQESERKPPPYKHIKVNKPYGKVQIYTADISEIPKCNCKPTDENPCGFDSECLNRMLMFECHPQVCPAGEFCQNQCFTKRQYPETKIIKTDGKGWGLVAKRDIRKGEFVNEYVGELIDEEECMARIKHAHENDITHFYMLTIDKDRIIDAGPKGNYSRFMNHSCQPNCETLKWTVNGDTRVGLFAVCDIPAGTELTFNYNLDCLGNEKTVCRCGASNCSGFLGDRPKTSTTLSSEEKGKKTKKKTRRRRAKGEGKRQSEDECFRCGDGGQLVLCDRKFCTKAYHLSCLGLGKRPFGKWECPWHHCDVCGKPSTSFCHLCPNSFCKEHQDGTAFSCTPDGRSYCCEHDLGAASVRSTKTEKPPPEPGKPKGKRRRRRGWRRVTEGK

Fatty acid synthase [5] = target: T3, Fatty acid synthase (Homo sapiens, UniProt P49327); assay: inhibition of human FAS-TE enzyme activity – biochemical, kinetic fluorescence intensity, dose response (AID 624326); assay type: functional;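 also: rate of fluorescence rise from hydrolysis of a fluorogenic O-methyl fluorescein ester substrate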
T3 sequence (P49327 whole entry): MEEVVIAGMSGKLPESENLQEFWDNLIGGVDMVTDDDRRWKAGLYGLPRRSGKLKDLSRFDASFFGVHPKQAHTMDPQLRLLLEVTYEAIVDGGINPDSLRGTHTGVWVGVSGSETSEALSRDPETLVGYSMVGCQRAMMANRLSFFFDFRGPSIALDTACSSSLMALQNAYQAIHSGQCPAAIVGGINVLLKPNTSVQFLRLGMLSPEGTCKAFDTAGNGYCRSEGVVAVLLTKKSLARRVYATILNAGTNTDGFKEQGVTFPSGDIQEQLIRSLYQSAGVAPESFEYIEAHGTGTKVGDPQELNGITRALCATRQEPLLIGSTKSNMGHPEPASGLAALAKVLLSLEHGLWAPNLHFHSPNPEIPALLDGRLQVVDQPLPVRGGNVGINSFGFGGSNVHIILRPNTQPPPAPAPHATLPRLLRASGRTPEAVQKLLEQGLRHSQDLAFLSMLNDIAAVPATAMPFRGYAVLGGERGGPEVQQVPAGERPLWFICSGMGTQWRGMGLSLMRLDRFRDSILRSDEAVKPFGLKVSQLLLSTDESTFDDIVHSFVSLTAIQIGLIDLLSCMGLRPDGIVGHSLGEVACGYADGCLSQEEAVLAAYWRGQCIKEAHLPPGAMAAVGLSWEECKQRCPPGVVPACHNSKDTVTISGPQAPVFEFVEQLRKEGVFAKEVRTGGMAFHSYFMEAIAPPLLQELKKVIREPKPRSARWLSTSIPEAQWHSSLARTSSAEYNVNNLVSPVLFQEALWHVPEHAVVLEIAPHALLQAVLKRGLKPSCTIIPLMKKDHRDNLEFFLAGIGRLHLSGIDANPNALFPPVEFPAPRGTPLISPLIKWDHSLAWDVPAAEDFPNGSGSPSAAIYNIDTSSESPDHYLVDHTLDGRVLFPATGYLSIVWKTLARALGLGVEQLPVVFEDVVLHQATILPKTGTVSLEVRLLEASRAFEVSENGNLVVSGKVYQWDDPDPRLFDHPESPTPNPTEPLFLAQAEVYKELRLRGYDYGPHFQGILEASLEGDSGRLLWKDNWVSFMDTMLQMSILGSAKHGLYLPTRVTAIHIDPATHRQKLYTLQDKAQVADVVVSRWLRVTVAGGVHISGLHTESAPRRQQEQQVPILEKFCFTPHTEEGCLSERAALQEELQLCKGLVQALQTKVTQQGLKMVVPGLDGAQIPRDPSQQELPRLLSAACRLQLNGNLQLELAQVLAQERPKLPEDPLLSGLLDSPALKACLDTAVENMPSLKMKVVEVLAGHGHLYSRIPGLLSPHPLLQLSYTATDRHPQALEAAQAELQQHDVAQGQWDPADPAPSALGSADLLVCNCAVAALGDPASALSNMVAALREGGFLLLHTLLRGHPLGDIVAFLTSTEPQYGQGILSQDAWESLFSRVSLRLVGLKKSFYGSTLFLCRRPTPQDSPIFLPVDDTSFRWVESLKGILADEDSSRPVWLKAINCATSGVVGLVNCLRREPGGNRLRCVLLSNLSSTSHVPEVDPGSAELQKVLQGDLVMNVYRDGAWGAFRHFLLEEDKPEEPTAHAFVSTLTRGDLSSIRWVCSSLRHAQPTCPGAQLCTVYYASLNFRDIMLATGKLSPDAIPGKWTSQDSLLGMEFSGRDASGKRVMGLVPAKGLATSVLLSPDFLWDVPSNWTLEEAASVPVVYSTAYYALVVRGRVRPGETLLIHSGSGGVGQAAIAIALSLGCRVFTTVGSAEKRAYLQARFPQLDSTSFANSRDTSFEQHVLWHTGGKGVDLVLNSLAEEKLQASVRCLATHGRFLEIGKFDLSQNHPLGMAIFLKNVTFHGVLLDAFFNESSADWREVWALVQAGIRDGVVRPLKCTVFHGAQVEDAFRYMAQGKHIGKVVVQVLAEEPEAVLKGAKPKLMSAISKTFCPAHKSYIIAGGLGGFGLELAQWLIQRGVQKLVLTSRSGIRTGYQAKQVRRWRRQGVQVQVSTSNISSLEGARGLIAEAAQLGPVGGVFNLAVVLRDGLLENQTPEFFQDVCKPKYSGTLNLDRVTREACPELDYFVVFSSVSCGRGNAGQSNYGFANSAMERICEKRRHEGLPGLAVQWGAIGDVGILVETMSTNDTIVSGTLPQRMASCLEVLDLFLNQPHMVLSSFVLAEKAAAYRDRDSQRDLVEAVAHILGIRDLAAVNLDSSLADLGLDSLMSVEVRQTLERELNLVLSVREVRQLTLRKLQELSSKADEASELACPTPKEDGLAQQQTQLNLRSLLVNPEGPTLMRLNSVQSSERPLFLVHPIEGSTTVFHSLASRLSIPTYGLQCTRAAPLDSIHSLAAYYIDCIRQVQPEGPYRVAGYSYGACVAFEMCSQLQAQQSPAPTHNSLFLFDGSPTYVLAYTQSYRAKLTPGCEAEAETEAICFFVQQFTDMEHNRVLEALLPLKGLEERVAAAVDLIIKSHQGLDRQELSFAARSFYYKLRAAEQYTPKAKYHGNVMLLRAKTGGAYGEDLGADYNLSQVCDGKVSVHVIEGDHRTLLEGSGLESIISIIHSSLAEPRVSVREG

Caspase-6 = target: T4, Caspase-6 (Homo sapiens, UniProt P55212); assay: inhibition of CASP6 peptide cleavage – biochemical, VEID-R110 fluorescence, cherry-pick, dose response (AID 720632)
T4 sequence (P55212 whole entry): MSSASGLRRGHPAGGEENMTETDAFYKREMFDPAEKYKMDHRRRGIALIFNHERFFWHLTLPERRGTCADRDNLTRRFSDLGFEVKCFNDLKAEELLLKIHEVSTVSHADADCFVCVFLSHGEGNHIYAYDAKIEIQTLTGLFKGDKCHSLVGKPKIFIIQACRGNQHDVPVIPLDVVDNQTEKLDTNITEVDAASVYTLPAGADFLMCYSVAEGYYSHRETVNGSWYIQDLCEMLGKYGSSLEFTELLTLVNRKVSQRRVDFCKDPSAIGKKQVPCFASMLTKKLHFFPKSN

Fatty acid synthase [6] = target: T3, Fatty acid synthase; assay: inhibition of human FAS-TE enzyme activity – biochemical, endpoint fluorescence intensity, uHTS hits, dose response (AID 624327); assay type: functional;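 also: fluorescence from hydrolysis of an O-methyl fluorescein acyl ester substrate by the enzyme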
[7] = target: T1, Small ubiquitin-related modifier 1; assay: SUMO1 protein-protein binding blockers, potency – biochemical, FRET, dose response (AID 624383); assay type: functional; settings: read-out: IC50_Mean
[8] = activation of miR-122 Renilla sensor silencing – cell-based, Huh7 psiCHECK-miR122, Renilla luciferase, cherry-picked, dose response (AID 651956); assay type: functional;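 also: huh7 hepatoma cells stably carrying a psiCHECK-2 miR-122 sensor plasmid; renilla luciferase signal reporting endogenous miR-122 activity after 48 h compound exposure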
[9] = Counterscreen for activators of the function of SWI/SNF related, matrix associated, actin dependent regulator of chromatin, subfamily a, member 2 (SMARCA2, BRM): Luminescence-based cell-based high throughput dose response assay to identify non-selective compounds using the VP16 reporter assay.; assay type: functional
[10] = target: SWI/SNF-related matrix-associated actin-dependent regulator of chromatin subfamily A member 2 (Homo sapiens, UniProt P51531); assay: Luminescence-based cell-based high throughput dose response assay to identify activators of the function of SWI/SNF related, matrix associated, actin dependent regulator of chromatin, subfamily a, member 2 (SMARCA2, BRM).; assay type: functional
Sequence of SWI/SNF-related matrix-associated actin-dependent regulator of chromatin subfamily A member 2 (P51531 whole entry): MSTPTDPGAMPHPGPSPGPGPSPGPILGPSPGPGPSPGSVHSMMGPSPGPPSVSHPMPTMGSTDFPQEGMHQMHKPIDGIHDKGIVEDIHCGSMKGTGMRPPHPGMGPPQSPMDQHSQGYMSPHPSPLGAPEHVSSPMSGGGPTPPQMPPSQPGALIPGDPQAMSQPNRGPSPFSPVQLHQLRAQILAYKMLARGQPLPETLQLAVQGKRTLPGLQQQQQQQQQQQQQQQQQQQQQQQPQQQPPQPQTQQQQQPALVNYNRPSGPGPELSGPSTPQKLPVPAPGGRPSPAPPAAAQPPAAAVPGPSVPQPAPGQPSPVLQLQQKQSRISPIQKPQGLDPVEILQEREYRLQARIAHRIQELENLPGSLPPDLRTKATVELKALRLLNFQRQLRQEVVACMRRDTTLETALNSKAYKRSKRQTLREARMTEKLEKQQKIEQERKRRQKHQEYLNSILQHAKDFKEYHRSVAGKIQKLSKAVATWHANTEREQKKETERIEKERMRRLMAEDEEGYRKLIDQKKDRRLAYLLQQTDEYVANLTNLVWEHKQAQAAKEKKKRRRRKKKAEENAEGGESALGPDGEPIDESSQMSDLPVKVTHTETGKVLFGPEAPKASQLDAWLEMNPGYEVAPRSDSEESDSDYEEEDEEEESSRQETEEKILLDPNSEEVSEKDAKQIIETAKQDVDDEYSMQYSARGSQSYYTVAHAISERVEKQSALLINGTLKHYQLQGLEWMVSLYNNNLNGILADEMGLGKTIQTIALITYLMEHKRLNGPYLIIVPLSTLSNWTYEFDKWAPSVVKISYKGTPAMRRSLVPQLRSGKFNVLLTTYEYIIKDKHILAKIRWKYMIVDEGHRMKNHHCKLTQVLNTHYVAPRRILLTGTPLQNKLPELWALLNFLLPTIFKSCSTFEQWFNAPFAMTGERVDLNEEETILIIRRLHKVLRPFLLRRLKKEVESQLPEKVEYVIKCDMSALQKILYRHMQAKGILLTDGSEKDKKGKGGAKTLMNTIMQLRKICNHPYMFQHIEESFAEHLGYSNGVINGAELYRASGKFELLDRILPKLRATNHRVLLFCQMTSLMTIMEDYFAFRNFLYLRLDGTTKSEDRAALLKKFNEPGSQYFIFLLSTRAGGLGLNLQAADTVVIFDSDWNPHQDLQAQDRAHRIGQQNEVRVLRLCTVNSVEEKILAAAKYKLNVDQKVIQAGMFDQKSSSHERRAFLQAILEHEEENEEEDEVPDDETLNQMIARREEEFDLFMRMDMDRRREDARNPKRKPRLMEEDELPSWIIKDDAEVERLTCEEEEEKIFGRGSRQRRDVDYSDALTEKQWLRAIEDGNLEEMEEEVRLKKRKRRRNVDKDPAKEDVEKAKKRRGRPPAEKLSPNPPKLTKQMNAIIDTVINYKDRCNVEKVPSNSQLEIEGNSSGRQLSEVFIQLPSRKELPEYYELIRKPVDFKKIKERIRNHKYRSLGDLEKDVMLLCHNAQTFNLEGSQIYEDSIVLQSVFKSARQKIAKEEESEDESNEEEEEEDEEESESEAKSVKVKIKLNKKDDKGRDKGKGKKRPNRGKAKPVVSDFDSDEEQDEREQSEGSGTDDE

Interleukin-8 [11] = target: T5, Interleukin-8 (Homo sapiens, UniProt P10145); assay: Dose Response confirmation of uHTS small molecule hits for cystic fibrosis induced NFkb Inhibitors in a TNFa-induced IL8 counterscreen.; assay type: functional; settings: read-out: IC50_Mean
T5 sequence (P10145 whole entry): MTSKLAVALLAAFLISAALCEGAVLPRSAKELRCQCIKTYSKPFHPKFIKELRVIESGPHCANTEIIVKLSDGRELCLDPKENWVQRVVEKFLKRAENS

Interleukin-8 [12] = target: T5, Interleukin-8; assay: Dose Response confirmation of uHTS small molecule hits for cystic fibrosis induced NFkb Inhibitors in a PAF-induced IL8 counterscreen.; assay type: functional; settings: read-out: IC50_Mean
Paired box protein Pax-8 = Paired box protein Pax-8 (Homo sapiens, UniProt Q06710); assay: PAX8 transcriptional activity inhibition in RMG-I – RMG-I cells, luciferase, cherry-pick, dose response (AID 687027); assay type: functional, cell-based;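 also: luciferase reporter driven by Pax8 target thyroperoxidase promoter measured by SteadyGlo luminescence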
Sequence of Paired box protein Pax-8 (Q06710 whole entry): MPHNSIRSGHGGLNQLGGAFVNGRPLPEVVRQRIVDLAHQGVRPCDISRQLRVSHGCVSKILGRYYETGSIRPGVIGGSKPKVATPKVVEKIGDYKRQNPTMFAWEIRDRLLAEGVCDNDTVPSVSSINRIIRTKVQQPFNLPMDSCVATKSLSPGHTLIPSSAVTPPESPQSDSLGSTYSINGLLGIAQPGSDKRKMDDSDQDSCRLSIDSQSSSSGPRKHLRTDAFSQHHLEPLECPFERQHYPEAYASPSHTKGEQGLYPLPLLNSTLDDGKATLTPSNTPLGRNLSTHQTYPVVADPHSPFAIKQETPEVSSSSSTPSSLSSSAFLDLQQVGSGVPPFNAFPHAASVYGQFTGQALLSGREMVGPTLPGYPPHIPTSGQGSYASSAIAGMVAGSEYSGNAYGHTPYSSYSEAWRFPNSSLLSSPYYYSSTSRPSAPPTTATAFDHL

In the case of `O=C(NCCCn1ccnc1)Nc1ccc(Cl)c(Cl)c1`, the AC50 [1] is reported as 99 µM (active).
In the case of `N#Cc1cc2ccc(N3CCOCC3)cc2cc1C#N`, the AC50 [2] is reported as 116 µM (active), the IC50 [3] is reported as > 66.6 µM (inactive) and the AC50 [4] is reported as 3.05 µM (active). The IC50 (Fatty acid synthase [5]) was 4.31 µM (active), the AC50 (Caspase-6) was 29.9 µM (active) and the IC50 (Fatty acid synthase [6]) was 5.9 µM (active). For the same molecule, the IC50 [7] was 100 µM (inactive).
For `COc1cc(-c2nnc(NC(=O)CS(=O)(=O)c3ccc(F)cc3)o2)cc(OC)c1OC`, the AC50 [1] was 102 µM (active).
For `COc1ccc(C#Cc2ccc3c(c2)O[C@H](CN(C)C(=O)CN2CCOCC2)[C@H](C)CN([C@@H](C)CO)S3(=O)=O)cc1`, the AC50 [8] was 29.9 µM (active).
With `N#C/C(=N/Nc1ccccc1F)C(=N)N1CCOCC1` the EC50 [9] was > 91.2 µM (inactive) and the EC50 [10] was > 91.2 µM (inactive).
In the case of `C=C1C(=O)O[C@@H]2[C@H]1CC[C@H](C)[C@]1(O)CCC(=O)[C@@]21C` [CORONOPILIN], the IC50 (Interleukin-8 [11]) is reported as 40.5 µM (inactive), the IC50 (Interleukin-8 [12]) is reported as 7.49 µM (active) and the AC50 (Paired box protein Pax-8) is reported as 5.43 µM (active).
